# Assay results published in ChEMBL document CHEMBL1126208, “Synthesis and antileukemic activity of etoposide a-ring analogs” (Bioorg Med Chem Lett, 1992).
# Assays:
# HCT-116 [1] = assay: Compound was tested for its in vitro cytotoxicity in HCT116 cell line after 72 hours; type: functional, cell-based; settings: Homo sapiens, HCT-116, 72 h
# Mus musculus [2] = assay: Anti-P388 Leukemia activity after 140 mg/kg/injection ip administration on days 5 and 8 expressed as percent of median survival time of drug treated mice compared to saline treated controls.; type: functional; settings: route intraperitoneal
# HCT-116 [3] = assay: Compound was tested for its in vitro cytotoxicity in HCT-VP35 cell line after 72 hours; type: functional, cell-based; settings: Homo sapiens, HCT-116, 72 h
# Mus musculus [4] = assay: Anti-P388 Leukemia activity after 280 mg/kg/injection ip administration on days 5 and 8 expressed as percent of median survival time of drug treated mice compared to saline treated controls.; type: functional; settings: route intraperitoneal
# Mus musculus [5] = assay: Anti-P388 Leukemia activity after 70 mg/kg/injection ip administration on days 5 and 8 expressed as percent of median survival time of drug treated mice compared to saline treated controls.; type: functional; settings: route intraperitoneal
# [6] = Ratio of IC50 of HCT-VP35 to IC50 of HCT116.; type: functional
# Mus musculus [7] = assay: Anti-P388 Leukemia activity determined when compound 150 mg/kg was administered ip on day 48 on mice expressed as the Long -term survivors (LTS); mice alive/total; No of mice tested=6; type: functional; settings: route intraperitoneal
# Mus musculus [8] = assay: Anti-P388 Leukemia activity determined when compound 120 mg/kg was administered ip on day 26 on mice expressed as the Long -term survivors (LTS); mice alive/total No of mice tested=6; type: functional; settings: route intraperitoneal
# Mus musculus [9] = assay: Anti-P388 Leukemia activity determined when compound 120 mg/kg was administered ip on day 53 on mice expressed as the Long -term survivors (LTS); mice alive/total No of mice tested=6; type: functional; settings: route intraperitoneal
# [10] = Ratio of IC50 of HCT-VP35 to IC50 of HCT116; type: functional
# Mus musculus [11] = assay: Anti-P388 Leukemia activity determined when compound 150 mg/kg was administered ip on day 51 on mice expressed as the Long -term survivors (LTS); mice alive/total; type: functional; settings: route intraperitoneal
# Mus musculus [12] = assay: Anti-P388 Leukemia activity determined when compound 150 mg/kg was administered ip on day 48 on mice expressed as the Long -term survivors (LTS); mice alive/total No of mice tested=6; type: functional; settings: route intraperitoneal
# Mus musculus [13] = assay: Anti-P388 Leukemia activity determined when compound 150 mg/kg was administered ip on day 51 on mice expressed as the Long -term survivors (LTS); mice alive/total; total no of mice =6; type: functional; settings: route intraperitoneal
smiles,measurement,setting,value
COc1cc([C@@H]2c3cc(O)c(O)cc3[C@@H](O[C@@H]3O[C@@H]4CO[C@@H](C)O[C@H]4[C@H](OC(=O)OCC(Cl)(Cl)Cl)[C@H]3OC(=O)OCC(Cl)(Cl)Cl)[C@H]3COC(=O)[C@H]23)cc(OC)c1OC(=O)OCC(Cl)(Cl)Cl,IC50,HCT-116 [1],10.2 µg/mL
same,T/C,Mus musculus [2],100
same,IC50,HCT-116 [3],8.95 µg/mL
same,T/C,Mus musculus [4],105
same,T/C,Mus musculus [5],100
same,Ratio,[6],0.87
same,LTS,Mus musculus [7],5
COc1cc([C@@H]2c3cc4oc(=S)oc4cc3[C@@H](O[C@@H]3O[C@@H]4CO[C@@H](C)O[C@H]4[C@H](O)[C@H]3O)[C@H]3COC(=O)[C@H]23)cc(OC)c1O,IC50,HCT-116 [1],> 15.6 µg/mL
same,T/C,Mus musculus [2],155
same,IC50,HCT-116 [3],> 15.6 µg/mL
same,T/C,Mus musculus [4],170
same,T/C,Mus musculus [5],130
same,LTS,Mus musculus [8],6
COc1cc([C@@H]2c3cc(O)c(O)cc3[C@@H](O[C@@H]3O[C@@H]4CO[C@@H](C)O[C@H]4[C@H](O)[C@H]3O)[C@H]3COC(=O)[C@H]23)cc(OC)c1O,LTS,Mus musculus [9],2
same,IC50,HCT-116 [1],> 15.6 µg/mL
same,T/C,Mus musculus [2],130
same,IC50,HCT-116 [3],> 15.6 µg/mL
same,T/C,Mus musculus [4],165
same,T/C,Mus musculus [5],125
COc1cc([C@@H]2c3cc(OC(=O)OCc4ccccc4)c(OC(=O)OCc4ccccc4)cc3[C@@H](O[C@@H]3O[C@@H]4CO[C@@H](C)O[C@H]4[C@H](O)[C@H]3O)[C@H]3COC(=O)[C@H]23)cc(OC)c1O,IC50,HCT-116 [1],5.8 µg/mL
same,IC50,HCT-116 [3],11.8 µg/mL
same,Ratio,[6],2
COc1cc([C@@H]2c3cc(OC(C)=O)c(OC(C)=O)cc3[C@@H](O[C@@H]3O[C@@H]4CO[C@@H](C)O[C@H]4[C@H](O)[C@H]3O)[C@H]3COC(=O)[C@H]23)cc(OC)c1O,IC50,HCT-116 [1],19.6 µg/mL
same,T/C,Mus musculus [2],167
same,IC50,HCT-116 [3],27.1 µg/mL
same,T/C,Mus musculus [4],194
same,T/C,Mus musculus [5],144
same,Ratio,[10],1.4
same,LTS,Mus musculus [11],4
CCCCCCCC(=O)Oc1cc2c(cc1OC(=O)CCCCCCC)[C@@H](O[C@@H]1O[C@@H]3CO[C@@H](C)O[C@H]3[C@H](O)[C@H]1O)[C@H]1COC(=O)[C@@H]1[C@@H]2c1cc(OC)c(O)c(OC)c1,IC50,HCT-116 [1],8.03 µg/mL
same,T/C,Mus musculus [2],125
same,IC50,HCT-116 [3],21.7 µg/mL
same,T/C,Mus musculus [4],135
same,T/C,Mus musculus [5],120
same,LTS,Mus musculus [12],5
same,Ratio,[6],2.7
COc1cc([C@@H]2c3cc4c(cc3[C@@H](O[C@@H]3O[C@@H]5CO[C@@H](C)O[C@H]5[C@H](O)[C@H]3O)[C@H]3COC(=O)[C@H]23)OCO4)cc(OC)c1O [ETOPOSIDE],IC50,HCT-116 [1],0.34 µg/mL
same,IC50,HCT-116 [3],1.78 µg/mL
same,Ratio,[6],5.2
COc1cc2c(cc1OC)[C@@H](O[C@@H]1O[C@@H]3CO[C@@H](C)O[C@H]3[C@H](O)[C@H]1O)[C@H]1COC(=O)[C@@H]1[C@@H]2c1cc(OC)c(O)c(OC)c1,IC50,HCT-116 [1],1.61 µg/mL
same,LTS,Mus musculus [13],4
same,T/C,Mus musculus [2],189
same,IC50,HCT-116 [3],10.3 µg/mL
same,T/C,Mus musculus [4],228
same,T/C,Mus musculus [5],189
same,Ratio,[6],6.4
